# Where two headings read alike, the source gives them in different places.
# Columns and labels:
# Experiment in all cases: KINOMEscan ScanTK
# Format in all cases: binding
# FLT4 = biological target: T1, FLT4 (Homo sapiens, UniProt P35916)
# T1 construct: purchased Eurofins DiscoverX KINOMEscan (scanTK)
# [1] = biological target: T2, JAK2(JH1domain-catalytic) (Homo sapiens, UniProt O60674)
# T2 construct: JAK2(JH1domain-catalytic); purchased Eurofins DiscoverX KINOMEscan (scanTK)
# MUSK = biological target: T3, MUSK (Homo sapiens, UniProt O15146)
# T3 construct: purchased Eurofins DiscoverX KINOMEscan (scanTK)
# T3 sequence (O15146 24-869): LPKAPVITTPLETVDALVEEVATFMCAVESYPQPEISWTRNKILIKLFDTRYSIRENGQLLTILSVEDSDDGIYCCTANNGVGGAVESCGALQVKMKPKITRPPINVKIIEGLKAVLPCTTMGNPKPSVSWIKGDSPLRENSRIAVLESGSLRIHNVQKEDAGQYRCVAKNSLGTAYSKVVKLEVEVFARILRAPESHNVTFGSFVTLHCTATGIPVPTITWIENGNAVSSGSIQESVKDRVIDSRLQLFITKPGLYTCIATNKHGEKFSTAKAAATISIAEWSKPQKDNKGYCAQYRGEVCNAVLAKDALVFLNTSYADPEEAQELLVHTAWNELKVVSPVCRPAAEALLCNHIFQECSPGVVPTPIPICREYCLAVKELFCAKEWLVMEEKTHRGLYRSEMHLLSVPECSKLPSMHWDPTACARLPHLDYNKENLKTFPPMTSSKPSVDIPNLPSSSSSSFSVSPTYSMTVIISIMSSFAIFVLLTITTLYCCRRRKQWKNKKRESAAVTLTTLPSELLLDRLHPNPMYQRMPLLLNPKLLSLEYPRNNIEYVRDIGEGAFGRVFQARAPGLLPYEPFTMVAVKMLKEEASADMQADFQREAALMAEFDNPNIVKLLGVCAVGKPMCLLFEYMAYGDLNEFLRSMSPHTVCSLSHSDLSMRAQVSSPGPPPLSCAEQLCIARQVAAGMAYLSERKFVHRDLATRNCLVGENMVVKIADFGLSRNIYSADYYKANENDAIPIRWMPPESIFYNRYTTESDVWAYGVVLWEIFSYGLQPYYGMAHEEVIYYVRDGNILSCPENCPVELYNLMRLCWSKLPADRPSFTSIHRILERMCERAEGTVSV
# MERTK = biological target: T4, MERTK (Homo sapiens, UniProt Q12866)
# T4 construct: purchased Eurofins DiscoverX KINOMEscan (scanTK)
# T4 sequence (Q12866 21-999): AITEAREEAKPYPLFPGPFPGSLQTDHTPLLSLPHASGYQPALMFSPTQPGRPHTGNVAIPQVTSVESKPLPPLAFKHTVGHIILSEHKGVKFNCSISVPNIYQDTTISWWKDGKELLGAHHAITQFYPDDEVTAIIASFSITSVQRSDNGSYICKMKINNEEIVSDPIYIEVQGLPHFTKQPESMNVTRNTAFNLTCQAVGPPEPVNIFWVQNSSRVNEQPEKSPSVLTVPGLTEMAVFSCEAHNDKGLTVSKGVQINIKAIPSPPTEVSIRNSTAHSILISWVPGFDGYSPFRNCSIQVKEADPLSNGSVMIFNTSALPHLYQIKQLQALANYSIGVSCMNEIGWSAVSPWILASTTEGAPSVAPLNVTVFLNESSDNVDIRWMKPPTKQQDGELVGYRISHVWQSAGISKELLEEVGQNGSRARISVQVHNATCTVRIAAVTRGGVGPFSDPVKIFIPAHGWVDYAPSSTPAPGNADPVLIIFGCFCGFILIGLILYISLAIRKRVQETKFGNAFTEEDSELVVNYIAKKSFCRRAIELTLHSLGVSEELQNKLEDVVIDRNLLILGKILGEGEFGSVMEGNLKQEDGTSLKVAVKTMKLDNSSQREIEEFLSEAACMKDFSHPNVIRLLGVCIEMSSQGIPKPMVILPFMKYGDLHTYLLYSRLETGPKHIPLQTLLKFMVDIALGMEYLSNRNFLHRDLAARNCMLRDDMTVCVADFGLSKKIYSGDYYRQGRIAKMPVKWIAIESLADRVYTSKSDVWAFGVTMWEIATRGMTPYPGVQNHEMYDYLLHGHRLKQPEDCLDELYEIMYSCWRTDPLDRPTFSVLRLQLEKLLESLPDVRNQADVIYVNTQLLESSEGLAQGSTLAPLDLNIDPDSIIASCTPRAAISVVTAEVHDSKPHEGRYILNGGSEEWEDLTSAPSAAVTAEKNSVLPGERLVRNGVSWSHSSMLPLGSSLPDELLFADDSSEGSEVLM
# EPHA3 = biological target: T5, EPHA3 (Homo sapiens, UniProt P29320)
# T5 construct: purchased Eurofins DiscoverX KINOMEscan (scanTK)
# T5 sequence (P29320 21-983): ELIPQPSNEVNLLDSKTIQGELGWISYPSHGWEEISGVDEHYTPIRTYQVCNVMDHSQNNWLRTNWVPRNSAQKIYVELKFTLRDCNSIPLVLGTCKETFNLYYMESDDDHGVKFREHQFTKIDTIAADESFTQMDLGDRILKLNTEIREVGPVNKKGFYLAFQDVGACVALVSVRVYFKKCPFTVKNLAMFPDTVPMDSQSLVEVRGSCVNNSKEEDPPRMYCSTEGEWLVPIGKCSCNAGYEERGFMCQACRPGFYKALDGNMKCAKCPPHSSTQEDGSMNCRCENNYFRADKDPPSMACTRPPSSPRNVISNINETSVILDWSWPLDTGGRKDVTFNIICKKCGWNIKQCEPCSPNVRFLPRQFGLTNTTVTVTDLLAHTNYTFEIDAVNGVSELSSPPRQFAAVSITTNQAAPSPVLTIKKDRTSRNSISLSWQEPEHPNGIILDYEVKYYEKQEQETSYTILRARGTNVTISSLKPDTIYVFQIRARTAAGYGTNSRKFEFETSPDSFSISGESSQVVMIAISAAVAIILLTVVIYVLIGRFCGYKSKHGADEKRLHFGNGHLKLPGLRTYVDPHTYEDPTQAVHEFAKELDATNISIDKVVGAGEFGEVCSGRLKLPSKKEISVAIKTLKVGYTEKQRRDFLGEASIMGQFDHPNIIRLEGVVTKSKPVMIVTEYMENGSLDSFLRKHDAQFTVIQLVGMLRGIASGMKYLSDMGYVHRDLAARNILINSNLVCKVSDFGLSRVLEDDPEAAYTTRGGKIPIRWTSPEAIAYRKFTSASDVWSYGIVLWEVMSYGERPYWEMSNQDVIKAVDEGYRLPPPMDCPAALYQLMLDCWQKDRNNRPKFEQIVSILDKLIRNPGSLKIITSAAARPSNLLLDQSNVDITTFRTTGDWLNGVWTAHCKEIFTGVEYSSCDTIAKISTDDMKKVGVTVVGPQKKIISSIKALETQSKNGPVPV
# T2 sequence (O60674 849-1132 limits assumed): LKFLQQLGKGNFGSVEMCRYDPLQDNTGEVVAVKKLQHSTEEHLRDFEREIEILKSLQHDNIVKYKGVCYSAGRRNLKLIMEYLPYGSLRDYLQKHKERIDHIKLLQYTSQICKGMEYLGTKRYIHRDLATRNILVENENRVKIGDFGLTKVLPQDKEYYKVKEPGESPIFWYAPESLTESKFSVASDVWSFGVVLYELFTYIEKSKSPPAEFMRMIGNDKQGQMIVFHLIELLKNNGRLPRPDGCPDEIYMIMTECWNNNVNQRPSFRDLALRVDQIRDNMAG
# T1 sequence (P35916 25-1363): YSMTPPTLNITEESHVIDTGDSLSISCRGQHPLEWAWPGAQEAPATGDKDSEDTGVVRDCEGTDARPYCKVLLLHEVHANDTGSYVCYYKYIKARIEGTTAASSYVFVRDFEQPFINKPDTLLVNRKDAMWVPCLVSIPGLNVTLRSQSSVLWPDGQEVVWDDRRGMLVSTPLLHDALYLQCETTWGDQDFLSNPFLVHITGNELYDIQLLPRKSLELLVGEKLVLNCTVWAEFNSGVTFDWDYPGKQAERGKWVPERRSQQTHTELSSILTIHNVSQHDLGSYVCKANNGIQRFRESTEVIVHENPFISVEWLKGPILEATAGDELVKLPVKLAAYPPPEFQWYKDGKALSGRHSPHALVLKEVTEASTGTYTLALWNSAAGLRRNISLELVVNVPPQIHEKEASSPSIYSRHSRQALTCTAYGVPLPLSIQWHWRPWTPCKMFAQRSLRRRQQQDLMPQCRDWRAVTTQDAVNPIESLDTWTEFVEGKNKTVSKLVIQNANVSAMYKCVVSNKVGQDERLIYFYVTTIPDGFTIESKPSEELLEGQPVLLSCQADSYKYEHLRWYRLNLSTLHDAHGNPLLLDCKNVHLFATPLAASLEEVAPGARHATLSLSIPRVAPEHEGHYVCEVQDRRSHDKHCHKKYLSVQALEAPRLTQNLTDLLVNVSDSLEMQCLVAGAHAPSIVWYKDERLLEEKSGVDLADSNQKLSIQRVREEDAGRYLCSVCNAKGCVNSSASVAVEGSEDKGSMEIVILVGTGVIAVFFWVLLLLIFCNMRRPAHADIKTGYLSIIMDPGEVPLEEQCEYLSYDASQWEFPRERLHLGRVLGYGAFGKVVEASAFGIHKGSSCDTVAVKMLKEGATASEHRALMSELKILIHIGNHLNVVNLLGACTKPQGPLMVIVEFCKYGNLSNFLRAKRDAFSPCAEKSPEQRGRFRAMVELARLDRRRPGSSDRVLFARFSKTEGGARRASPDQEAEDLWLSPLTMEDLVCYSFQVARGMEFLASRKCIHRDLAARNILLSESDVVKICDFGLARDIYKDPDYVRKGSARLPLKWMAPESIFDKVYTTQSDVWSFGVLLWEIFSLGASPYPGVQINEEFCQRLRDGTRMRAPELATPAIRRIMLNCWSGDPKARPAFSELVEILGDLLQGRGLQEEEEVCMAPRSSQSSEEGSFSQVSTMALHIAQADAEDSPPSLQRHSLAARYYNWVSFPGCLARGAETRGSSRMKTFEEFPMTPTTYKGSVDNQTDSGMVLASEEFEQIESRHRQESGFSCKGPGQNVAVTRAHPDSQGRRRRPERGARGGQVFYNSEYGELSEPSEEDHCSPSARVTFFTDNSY
SMILES,"remaining binding at 1 µM (FLT4; @1000nM, read-out: %Control) [%]",remaining binding at 1 µM (FLT4; read-out: %Control @1000nM) [%],"remaining binding at 1 µM ([1]; @1000nM, read-out: %Control) [%]",remaining binding at 1 µM ([1]; read-out: %Control @1000nM) [%],"remaining binding at 1 µM (MUSK; @1000nM, read-out: %Control) [%]",remaining binding at 1 µM (MUSK; read-out: %Control @1000nM) [%],"remaining binding at 1 µM (MERTK; @1000nM, read-out: %Control) [%]",remaining binding at 1 µM (MERTK; read-out: %Control @1000nM) [%],"remaining binding at 1 µM (EPHA3; @1000nM, read-out: %Control) [%]",remaining binding at 1 µM (EPHA3; read-out: %Control @1000nM) [%],difference in %Control from compound Ib at 1 µM (FLT4; @1000nM) [%],difference in %Control vs compound Ib at 1 µM ([1]; @1000nM) [%],difference in % of control versus compound Ib at 1 µM (EPHA3; @1000nM) [%]
"C=CC(=O)N1CCC[C@@H](n2nc(-c3ccc(Oc4ccccc4)cc3)c3c(N)ncnc32)C1 [Compound 1g, Ibrutinib, reference compound]",27,27,100,100,95,95,38,38,76,76,–,–,–
"Cc1cnc(S(C)(=O)=O)nc1N1CCCC(n2nc(-c3ccc(Oc4ccccc4)cc3)c3c(N)ncnc32)C1 (centres unmarked) [Compound 8a, 1-(1-(5-Methyl-2-(methylsulfonyl)pyrimidin-4-yl)piperidin-3-yl)-3-(4-phenoxyphenyl)-1H-pyrazolo[3,4-d]pyrimidin-4-amine]",88,88,87,87,88,88,60,60,81,81,61,-13,5
"CNC(=O)c1cnc(S(C)(=O)=O)nc1N1CCCC(n2nc(-c3ccc(Oc4ccccc4)cc3)c3c(N)ncnc32)C1 (centres unmarked) [Compound 8d, 4-(3-(4-Amino-3-(4-phenoxyphenyl)-1H-pyrazolo[3,4-d]pyrimidin-1-yl)piperidin-1-yl)-N-methyl-2-(methylsulfonyl)pyrimidine-5-carboxamide]",94,94,86,86,98,98,49,49,84,84,67,-14,8

# The next lines start with the values.
"remaining binding at 1 µM (FLT4; @1000nM, read-out: %Control) [%]",remaining binding at 1 µM (FLT4; read-out: %Control @1000nM) [%],"remaining binding at 1 µM ([1]; @1000nM, read-out: %Control) [%]",remaining binding at 1 µM ([1]; read-out: %Control @1000nM) [%],"remaining binding at 1 µM (MUSK; @1000nM, read-out: %Control) [%]",remaining binding at 1 µM (MUSK; read-out: %Control @1000nM) [%],"remaining binding at 1 µM (MERTK; @1000nM, read-out: %Control) [%]",remaining binding at 1 µM (MERTK; read-out: %Control @1000nM) [%],"remaining binding at 1 µM (EPHA3; @1000nM, read-out: %Control) [%]",remaining binding at 1 µM (EPHA3; read-out: %Control @1000nM) [%],difference in %Control from compound Ib at 1 µM (FLT4; @1000nM) [%],difference in %Control vs compound Ib at 1 µM ([1]; @1000nM) [%],difference in % of control versus compound Ib at 1 µM (EPHA3; @1000nM) [%],SMILES
89,89,82,82,92,92,67,67,77,77,62,-18,1,"COC(=O)c1cnc(S(C)(=O)=O)nc1N1CCCC(n2nc(-c3ccc(Oc4ccccc4)cc3)c3c(N)ncnc32)C1 (centres unmarked) [Compound 8b, Methyl 4-(3-(4-Amino-3-(4-phenoxyphenyl)-1H-pyrazolo[3,4-d]pyrimidin-1-yl)piperidin-1-yl)-2-(methylsulfonyl)pyrimidine-5-carboxylate]"
100,100,83,83,73,73,71,71,77,77,73,-17,1,"CCOC(=O)c1cnc(S(C)(=O)=O)nc1N1CCC[C@@H](n2nc(-c3ccc(Oc4ccccc4)cc3)c3c(N)ncnc32)C1 [Compound 8c, Ethyl (R)-4-(3-(4-Amino-3-(4-phenoxyphenyl)-1H-pyrazolo[3,4-d]pyrimidin-1-yl)piperidin-1-yl)-2-(methylsulfonyl)pyrimidine-5-carboxylate]"
